Laboratory results from US20250136997A1, “COMPOSITIONS FOR SEQUESTERING ISOAMYL AMINE AND METHODS OF USE THEREFOR” (University of Louisville Research Foundation, Inc., priority 2023, published 2025).

Key:
[1] = test system: S100A8 promoter; assay: Luciferase reporter with S100A8 promoter in microglia; type: cell-based, mouse
Text: Construction of the S100A8 promoter into the luciferase plasmid vector. To determine the activity of IAA on the promoter of S100A8, a sequence containing 1,037 bp of S100A8 promoter (GENBANK® Accession #: L76381) upstream −1,037 to −1 from transcription start site (TSS) was constructed into the luciferase C1 vector (Addgene, #163523). A DNA fragment was generated by PCR amplification with genomic DNA extracted from mouse liver tissue using DNeasy Blood & Tissue Kits (Qiagen, #69504). PCR was conducted using Q5 High-Fidelity PCR kit (New England Biolabs® Inc.) with the primers 51008A-prom, pLuc163523 and genomic DNA, and luciferase C1 plasmid as the template, respectively. The two PCR products purified using the Gel extraction kit (Qiagen) were seamlessly assembled into the pLuc-S100p using the NEBuilder HiFi DNA Assembly Cloning Kit (New England Biolabs® Inc.). The plasmid pLuc-S100p was transformed into DH5a and selected using kanamycin resistance. The DNA sequence was confirmed by DNA sequencing.
Site-directed mutagenesis within the S100A8 promoter. A mutant of IAA with the potential binding site on the S100A8 promoter was generated with the oligonucleotide primer S1008A-prom-Mut, which was designed to specifically disrupt the putative S100A8 binding site at its promoter (FIG. 3C). Q5® Site-Directed Mutagenesis Kit (New England Biolabs, MA, USA) was used in conjunction with specific primers (Table 3) to introduce S100A8 promoter mutations in the pLuc-S100p construct according to the manufacturer's instructions. After mutant strand synthesis and ligation, resultant plasmids were introduced into E. coli and transformants were selected using kanamycin resistance. The DNA sequence of mutants was confirmed by DNA sequencing.

[2] = Histological analysis (H&E) of brain; type: in vivo, mouse; conditions: IAA to young mice, phage to aged mice; especially cerebrum and cerebellum
Experimental: Histological analysis. For hematoxylin and eosin (H&E) staining, tissues were fixed with buffered 10% formalin solution (SF93-20; Fisher Scientific, Fair Lawn, NJ) overnight at 4° C. Dehydration was achieved by immersion in a graded ethanol series of 70%, 80%, 95%, and 100% ethanol for 40 minutes each. Tissues were embedded in paraffin and subsequently cut into ultra-thin slices (5 μm) using a microtome. Tissues were deparaffinized by xylene (Fisher) and rehydrated by decreasing concentrations of ethanol and PBS. Tissue sections were stained with H&E and slides were scanned with an Aperio ScanScope. For frozen sections, tissues were fixed with periodate-lysine-paraformaldehyde (PLP) and dehydrated with 30% sucrose in PBS at 4° C. overnight. The sections were incubated overnight at 4° C. with anti-Iba1 (FujiFilm, #019-19741) and anti-CD-11b (Biolegend, #101204) diluted 1:100. The signal was visualized with the secondary antibodies conjugated to Fluors Alex-488 or Alex-594 (Invitrogen) and nuclei were stained with 4′,6-Diamidino-2-phenylindole dihydrochloride (DAPI). The slides were scanned using an Aperio ScanScope or visualized using confocal laser scanning microscopy (Nikon, Melville, NY).

[3] = test system: S100A8; assay: Western blot of S100A8 in p53 KO microglia after IAA; type: cell-based, mouse; conditions: p53 KO with CRISPR-Cas9, IAA 12 h
Experimental: Western blotting. Cells were treated as indicated in individual Figure legends and whole cell extracts (WCE) were prepared in the radioimmunoprecipitation assay (RIPA) buffer (Sigma) with addition of protease and phosphatase inhibitors (Roche). Proteins were separated by 10% SDS-PAGE and transferred to polyvinylidene difluoride (PVDF) membranes (Bio-Rad Laboratories, Inc., Hercules, CA). Dual color precision protein MW markers (BioRad) were separated in parallel. Antibodies were purchased as follows: cleaved-caspase-3 (ab214430), cleaved PARP (ab203467) and GAPDH (ab9657, Abcam) from Abcam; S100A8 (47310) and S100a9 (72590) from Cell Signaling; and Ltf (GTX81085) from GeneTex. The secondary antibodies conjugated to Fluors Alex-488 (A32723) or Alex-594 (A11012) were purchased from Invitrogen (Eugene, OR). The bands were visualized on the Odyssey Imager (LiCor Inc, Lincoln, NE).

For CC(C)CCN [IAA, isoamylamine], the “effect of IAA on the S100A8 transcription (luciferase)” value ([1]; p53 KO microglia with additional p53) was “recovered”, the “IAA-induced S100A8 activation (luciferase)” value ([1]; p53 deficiency (p53 KO microglia)) was “attenuated” and the “luciferase activity, S100A8 promoter sequence” value ([1]; wild-type promoter, microglia, 12 h after IAA) was “activated”. The “neuronal loss and dying neurons in the brain (histology)” value [2] was “significantly promoted” and the “S100A8 induced by IAA (western blot)” value [3] was “p53 dependent”.
